From patent publication US20100292260A1, “6-VINYL PYRIMIDINE AND PYRIMIDINONE DERIVATIVES AND THE USE THEREOF” (priority 2005, published 2010)
Read-outs that look alike come from different tables or passages of the source.

Experiments:
[1] = tested on: wild strain of HIV-1 NL4-3; experiment: Inhibition of viral proliferation on culture cells (MT-4, MTT), wild strain; format: cell-based
Description: (§1) The biological activity of the compounds was evaluated on lymphoid cell lines MT-4 against the wild strain of HIV-1 NL4-3. The MT-4 cells were briefly infected with the appropriate HIV-1 or the infection was simulated to determine the cytoxicity, in the presence of different concentrations of potential inhibitor compounds. 5 days after the infection a colorimetric method was used that involves using a tetrazole salt (MTT) to evaluate the number of surviving cells. The mutant IRLL98 HIV-1 contains the following mutations in the coding sequence for RT:M41L, D67N, Y181C, M184V, R211K, T215Y (resistance to NRTI) and the mutations K101Q, Y181C, G190A (resistance to NNRTI). The H1V-1 mutants containing multi-NNRTI mutations, K103N or Y188L as mutants were supplied by the Medical Research Council Centralised Facility for AIDS Reagents, Herfordshire, UK.

[2] = target: T1, reverse transcriptase containing the mutation Y181I (Human immunodeficiency virus type 1 group M subtype B, UniProt P03366, Y780I); experiment: Enzyme test with mutated reverse transcriptase Y181I; format: biochemical, HIV-1
T1 construct: cloning the gene of the mutated RT in an expression vector for prokariotic cells; made in house
Description: (§2) In a final volume of 25 microlitres the following reagents were mixed: 50 mM Tris-HCl pH 7.5, 0.25 mg/ml BSA, 0.5 mM DTT, 20-50 nM HIV-1 (recombinant) reverse transcriptase, nucleotide substrate dTTP marked radioactively (^3H, 4 Ci/mmol) and nucleic acid (poly(rA)/oligo(dT)). The concentrations of dTTP and poly(rA)/oligo(dT) in standard conditions were 5 μM and 0.5 μM, respectively.
(§3) The reaction mixture is incubated 10 min. at 37° C. and 20 μl are removed and deposited on a GF/C Whatman glass fibre filter measuring 25 mm in diameter. The filters are washed 3 times for 5 min. in 5% trichloroacetic acid and once for 5 min. in absolute alcohol. After being dried, the filters are immersed in a scintillating mixture (Packard) and the acid precipitable radioactivity is measured by a scintillation counter for β-emitting isotopes (Beckman).
(§4) In some experiments, the HIV-1 recombinant reverse transcriptase was substituted by a reverse transcriptase containing the mutations K.103N and Y181I. They were produced by cloning the gene of the mutated RT in an expression vector for prokariotic cells according to the method reported in the literature (Maga G, Amacker M, Ruel N, Hubscher U, Spadari S. Resistance to nevirapine of HIV-1 reverse transcriptase mutants: loss of stabilizing interactions and thermodynamic or steric barriers are induced by different single amino acid substitutions. J Mol Biol. Dec. 19, 1997; 274(5):738-47).
(§5) The dose-response curves obtained by means of samples of enzyme activity in the presence of increasing doses of inhibitor were analysed according to the equation E(%)=Emax/([…], where E(%) is the fraction of enzyme activity that is measurable in the presence of each concentration of inhibitor, Emax is the activity in the absence of an inhibitor, I is the concentration of inhibitor. The ID50 was calculated by analysing data using the GraphPad Prism graphic interpolation programme (for Macintosh).

[3] = target: T2, HIV-1 (recombinant) reverse transcriptase (Human immunodeficiency virus type 1 group M subtype B, UniProt P03366); experiment: Enzyme test: reverse transcription reaction in vitro with recombinant RT, wild type; format: biochemical
T2 construct: 20-50 nM HIV-1 (recombinant) reverse transcriptase
Description: as §2, §3, §5

[4] = Cytotoxicity in mock-infected MT-4 cells (MTT); format: cell-based; conditions: human
Description: as §1

HIV-1 mutant Y188L = experiment: Inhibition of viral proliferation on culture cells (MT-4, MTT), Y188L mutant; format: cell-based
Description: as §1

[5] = target: T3, reverse transcriptase containing the mutation K103N (Human immunodeficiency virus type 1 group M subtype B, UniProt P03366, K702N); experiment: Enzyme test with mutated reverse transcriptase K103N; format: biochemical, HIV-1
T3 construct: cloning the gene of the mutated RT in an expression vector for prokariotic cells; made in house
Description: as §2, §3, §4, §5

HIV-1 mutant Y181C = experiment: Inhibition of viral proliferation on culture cells (MT-4, MTT), Y181C mutant; format: cell-based
Description: as §1

HIV-1 mutant K103N = experiment: Inhibition of viral proliferation on culture cells (MT-4, MTT), K103N mutant; format: cell-based
Description: as §1

[6] = Human immunodeficiency virus 1, NL43, read-out: NL4-3 wt
[7] = Table 2, enzyme test, read-out: WT
[8] = Human immunodeficiency virus 1, read-out: Y188L
[9] = Human immunodeficiency virus 1, read-out: Y181C
[10] = Human immunodeficiency virus 1, read-out: K100N
[11] = Table 1, recombinant RT wild type, read-out: ID50 WT

SMILES	EC50 [1, 6] [µM]	IC50 [2] [µM]	IC50 [3, 7] [µM]	CC50 at 5 days [4] [µM]	EC50 (HIV-1 mutant Y188L; [8]) [µM]	IC50 [5] [µM]	EC50 (HIV-1 mutant Y181C; [9]) [µM]	EC50 (HIV-1 mutant K103N; [10]) [µM]	other results
CCc1c(Cc2c(Cl)cccc2Cl)nc(SCC=Cc2ccc(OC)cc2)[nH]c1=O [Compound 26e]	0.0015	> 20	0.056	0.19	> 0.19	> 20	> 0.19	> 0.19	activity in cell tests on wild type, in words [1]: nanomolar and subnanomolar activity
Cc1c(Cc2c(F)cccc2F)nc(SCC#Cc2ccc([N+](=O)[O-])cc2)[nH]c1=O [Compound 27a, 6-(2,6-Difluorobenzyl)-2-(3-(4-nitrophenyl)-propynylsulfanyl)-5-methylpyrimidine-4(3H)-one]				> 58.6	> 58.6		> 58.6		EC50 ([1]; Human immunodeficiency virus 1, NL43, read-out: NLA-3wt): 40.1 µM; IC50 ([3]; Table 3, enzyme test, read-out: WT): 0.416 µM; EC50 (HIV-1 mutant K103N; Human immunodeficiency virus 1, read-out: K103N): > 58.6 µM
C=Cc1cc(N(CC)CC)nc(S(C)(=O)=O)n1 [MB3B, reference compound]		> 400				> 400			IC50 [3, 11]: 21.3 µM
Cc1c(Cc2c(F)cccc2F)nc(SCC=Cc2ccc([N+](=O)[O-])cc2)[nH]c1=O [Compound 26i]	0.26	> 20	11.9	11.7	> 11.7	> 20	> 11.7	> 11.7	
Cc1c(Cc2c(Cl)cccc2Cl)nc(SCC=Cc2ccc(N(C)C)cc2)[nH]c1=O [Compound 26d]	> 54.4		0.788	> 54.4	> 54.4		> 54.4	> 54.4	
COc1ccc(C#CCSc2nc(C(C)c3c(Cl)cccc3Cl)c(C)c(=O)[nH]2)cc1 (racemic) [Compound 27b]									EC50 ([1]; Table 3, cell test, read-out: NLA-3wt): 0.5 µM; EC50 (HIV-1 mutant Y188L; Table 3, cell test, read-out: Y188L): 24.8 µM; EC50 (HIV-1 mutant Y181C; Table 3, cell test, read-out: Y181C): 33.5 µM; EC50 (HIV-1 mutant K103N; Table 3, cell test, read-out: K103N): > 54.5 µM
COc1ccc(/C=C/CSc2nc(Cc3c(Cl)cccc3Cl)c(C)c(=O)[nH]2)cc1 [Compound 26a]	0.015	> 20	0.007	0.96	> 0.96	9	> 0.96	> 0.96	activity in cell tests on wild type, in words [1]: nanomolar and subnanomolar activity; activity in cell tests on mutant Y188L, in words (HIV-1 mutant Y188L): micromolar and submicromolar activity; activity in cell tests on mutant Y181C, in words (HIV-1 mutant Y181C): micromolar and submicromolar activity; activity in cell tests on mutant K103N, in words (HIV-1 mutant K103N): micromolar and submicromolar activity
CCc1c(C(C)c2c(F)cccc2F)nc(SCC=Cc2ccc(C#N)cc2)[nH]c1=O (stereo not shown) [Compound 26r]	0.59		0.048	27.2	> 27.2		> 27.2	> 27.2	
Cc1c(C(C)c2c(F)cccc2F)nc(SCC=Cc2ccc(C#N)cc2)[nH]c1=O (stereo not shown) [Compound 26o]	0.14		0.161	> 59.1	> 59.1		> 59.1	> 59.1	
C=Cc1nc(SC)nc(N(C)C)c1I [Compound 6a]									IC50 [3, 11]: > 400 µM
CCc1c(Cc2c(Cl)cccc2Cl)nc(SCC=Cc2ccc([N+](=O)[O-])cc2)[nH]c1=O [Compound 26f]		> 20	2.5			> 20			
COc1ccc(C=CCSc2nc(C(C)c3c(F)cccc3F)c(C)c(=O)[nH]2)cc1 (stereo not shown) [Compound 26n]	0.0002	> 20	0.292	> 11.7	0.07	3.7	0.13	0.26	activity in cell tests on wild type, in words [1]: nanomolar and subnanomolar activity; activity in cell tests on mutant Y188L, in words (HIV-1 mutant Y188L): micromolar and submicromolar activity; activity in cell tests on mutant Y181C, in words (HIV-1 mutant Y181C): micromolar and submicromolar activity; activity in cell tests on mutant K103N, in words (HIV-1 mutant K103N): micromolar and submicromolar activity
COc1ccc(C=CCSc2nc(Cc3c(F)cccc3F)c(C)c(=O)[nH]2)cc1 [Compound 26l]	0.043	> 20	0.25	3.93	> 3.93	> 20	> 3.93	> 3.93	activity in cell tests on wild type, in words [1]: nanomolar and subnanomolar activity
Cc1c(Cc2c(Cl)cccc2Cl)nc(SCC=Cc2ccc([N+](=O)[O-])cc2)[nH]c1=O [Compound 26b]	> 10.8	> 20	3.81	> 10.8	> 10.8	> 20	> 10.8	> 10.8	
Cc1c(C(C)c2c(Cl)cccc2Cl)nc(SCC=Cc2ccc([N+](=O)[O-])cc2)[nH]c1=O (stereo not shown) [Compound 26h]		> 20	0.102			> 20			
Cc1c(C(C)c2c(F)cccc2F)nc(SCC=Cc2ccc([N+](=O)[O-])cc2)[nH]c1=O (stereo not shown) [Compound 26m]	0.14	> 20	0.283	> 11.3	> 11.3	> 20	> 11.3	> 11.3	
CCc1c(C(C)c2c(F)cccc2F)nc(SCC=Cc2ccc([N+](=O)[O-])cc2)[nH]c1=O (stereo not shown) [Compound 26q]	0.0004	> 20	0.009	5.75	1.94	> 20	> 5.75	> 5.75	activity in cell tests on wild type, in words [1]: nanomolar and subnanomolar activity
CCc1c(Cc2c(Cl)cccc2Cl)nc(SCC=Cc2ccc(C#N)cc2)[nH]c1=O [Compound 26c]	1.73		0.188	> 54.8				> 54.8	Y181C, % at given concentration (HIV-1 mutant Y181C; Table 2, at 54.82): 41% at
